From paper PMC7767381, “Exploring the Anti-Cancer Mechanism of Novel 3,4′-Substituted Diaryl Guanidinium Derivatives” (Pharmaceuticals, 2020)
“Also recorded” adds a separate entry of the source. Where a name gives a salt, the structure may show the parent alone. Read-outs that look alike come from different tables or passages of the source.

Columns and labels:
MCF-7 cells = test: alamarBlue cell viability assay, MCF-7; format: cell-based; conditions: Homo sapiens, MCF7, 72 h, read-out: MCF-7 IC50 ± SEM
Source text: (§1) Cell viability and proliferation assays were used to evaluate the in vitro cytotoxicity of all synthesised compounds in a variety of different cancer cell lines using the alamarBlue® viability assay and the results are presented in Table 1 and Table 2. The sensitivity of cancer cells to drugs can often be compromised by PIK3CA, Ras and BRAF mutations. To determine whether such mutations are critical to the efficacy of our new compounds we tested them in a range of cancerous cell lines expressing different mutations. Firstly, we used the HL-60 (human promyelocytic leukaemia, NRas mutated) cell line for general cytotoxicity screening of all compounds. […] Lastly, toxicity against MCF-10A, which is a non-tumorigenic epithelial cell line, was also assessed for one of the most promising compounds (4). The graphs representing the viability results with the HL-60, MCF-7, HeLa, HCT-116, and HKH-2 cancer cell lines for compound 1 and derivatives 2, 3, and 4 are shown in Figures S7–S10 (ESI).
(§2) Cells were counted and seeded in 96-well plates at a density of 2 × 10^5 cells/mL for HL-60, 2.5 × 10^4 cells/mL for MCF-7, MCF10A and HeLa, 1 × 10^5 cells/mL for HCT116 and HKH-2, all of them in their respective media. The 96-well plates were then treated with a 1:100 dilution of stock concentrations of drugs or EtOH (1% v/v)/DMSO (0.1% v/v) as vehicle control in triplicate. Three blank wells containing 200 µL RPMI with no cells were also set-up as blanks. After a 72 h incubation, 20 µL of alamarBlue was added to each well. The plates were incubated in darkness at 37 °C for 4–5 h using a Molecular Devices microplate reader, the fluorescence (F) was then read at an excitation wavelength of 544 nm and an emission wavelength of 590 nm. Cell viability was then determined by subtracting the mean blank fluorescence (Fb) from the treated sample fluorescence (Fs) and expressing this as a percentage of the fluorescence of the blanked vehicle control (Fc). […] The results were then plotted as a nonlinear regression, sigmoidal dose-response curves on Prism, from which the IC50 value for each drug was determined.
(§3) The MCF-7 (human breast tumour) cell line was obtained from Prof. Mary Meegan, School of Pharmacy, TCD. It was maintained in Roswell Park Memorial Institute (RPMI) 1640 medium with stable glutamate (GlutaMax I) supplemented with 10% (v/v) fetal bovine serum (FBS), 1% (v/v) penicillin/ streptomycin (pen-strep) and 2 mM L-glutamine.
(§4) The HeLa (human epitheloid cervix carcinoma) cell line was obtained from Prof. Thorfinnur Gunnlaugsson, School of Chemistry TCD. It was maintainedin Dulbecco's Modified Eagle's Medium (DMEM) supplemented with 10% (v/v) fetal bovine serum (FBS) and 1%(v/v) penicillin/ streptomycin (pen-strep).
(§5) The HCT116and HKH-2 (human colon cancer cells) cell lines were obtained from Prof. James Murray, School of Biochemistry and Immunology TCD. They were maintainedin Dulbecco's Modified Eagle's Medium (DMEM) supplemented with 10% (v/v) fetal bovine serum (FBS), 1% (v/v) penicillin/ streptomycin (pen-strep), 1% (v/v) sodium pyruvate (NaPyr), 1% (v/v) L-glutamine (L-Glu) and, only for HKH-2, 0.6 mg/mL geneticine (G418).
MCF-10A (human breast epithelial) cell line was obtained from Prof. Mary Meegan, School of Pharmacy, TCD. It was cultured in Dulbecco’s Modified Eagle Medium/Nutrient Mixture F-12 (DMEM/F12; Gibco) supplemented with 5% horse serum (Invitrogen), 20 ng/mL epidermal growth factor (Merck Millipore), 0.5 μg/mL hydrocortisone (Sigma), 100 ng/mL cholera toxin (Sigma), 10 μg/mL insulin (Sigma), and penicillin/streptomycin (1% v/v) (Gibco).
(§6) 4.4. AlamarBlue ® Cell Viability Assay
Cells were counted and seeded in 96 well plates at a density of 2 × 10^5 cells/mL for HL-60, 2.5× 10^4 cells/mL for MCF-7, MCF10A and HeLa, 1 × 10^5 cells/mL for HCT116 and HKH-2, all of them in their respective media. The 96 well plates were then treated with a 1:100 dilution of stock concentrations of drugs or EtOH (1% v/v)/DMSO (0.1% v/v) as vehicle control in triplicate. […]

HeLa cells = test: alamarBlue cell viability assay, HeLa; format: cell-based; conditions: Homo sapiens, 72 h, read-out: HeLa IC50 ± SEM
Source text: as §1, §2, §3, §4, §5
(§7) MCF-10A (human breast epithelial) cell line was obtained from Prof. Mary Meegan, School of Pharmacy, TCD. […]
(§8) Cells were counted and seeded in 96 well plates at a density of 2 × 10^5 cells/mL for HL-60, 2.5× 10^4 cells/mL for MCF-7, MCF10A and HeLa, 1 × 10^5 cells/mL for HCT116 and HKH-2, all of them in their respective media. […]

HCT116 cells = test: alamarBlue cell viability assay, HCT116; format: cell-based; conditions: Homo sapiens, HCT-116, 72 h, KRas mutant, read-out: HCT116 IC50 ± SEM
Source text: as §1, §2, §3, §4, §5, §7, §8

HKH-2 cells = test: alamarBlue cell viability assay, HKH-2; format: cell-based; conditions: Homo sapiens, 72 h, mutated KRas disrupted, read-out: HKH-2 IC50 ± SEM
Source text: as §1, §2, §3, §4, §5, §7, §8

[1] = test system: ERK phosphorylation (MAPK/ERK pathway); test: Western immunoblot of ERK phosphorylation in HL-60 extracts; format: cell-based, human; conditions: HL-60, 5 and 10 μM, 16 h
Protocol: Thus, using Western immunoblot analysis of HL-60 extracts, we investigated the expression and phosphorylation levels of ERK (as an indication of ERK activation), which is the downstream effector of the Ras/BRAF signalling pathway (Figure 6).
HL60s were seeded in T25 flasks at 50 × 10^4 cells/mL and cells were treated with either vehicle [0.5% EtOH (v/v)], 1–4, 9 or 52 (5 µM), as well as 1 (10 µM as reported). After 16 h, cells were collected and washed with PBS. Cell pellets were re-suspended in cold cell lysis buffer (radio-immunoprecipitation assay buffer) supplemented with 1% phosphatase inhibitor cocktail 2 and 3 (Sigma) and 10% protease inhibitor (Roche). Cells were lysed for 30 min on ice. Protein concentration was then determined by BCA assay. Lysates were boiled with Laemmli sample buffer [Tris-HCL 50 mM (pH 6.7), glycerol 10% (w/v), sodium dodecyl sulphate 2% (w/v), bromophenol blue 0.02% (w/v)] containing DTT […] for 10 min at 90 °C. Moreover, 20 µg of lysates were resolved by sodium dodecyl sulphate polyacrylamide gel electrophoresis (SDS-PAGE) and transferred onto PVDF transfer membrane (EMD Millipore). Membranes were blocked with 5% non-fat milk and probed with primary antibodies for ERK and phospho-ERK (Cell Signalling). Anti-GAPDH was used as a loading control (Calbiochem).
Figure 6 Western immunoblot of HL-60 cell extracts following incubation with compounds 2, 3, 4, 9, 52 and 1 (as a control). HL60 cells were seeded at 2 × 10^5 cells/mL and were treated with either vehicle [0.5% EtOH (v/v)], compounds 52, 2, 9, 3 and 4 (5 µM) or compound 1 (5 and (*) 10 µM, as in reference) for 16 h. Cells were lysed and equal amounts of protein were loaded and separated on 15% SDS-PAGE gels, transferred to PVDF membrane and probed with antibodies against total and phosphorylated ERK. Anti-GAPDH was used as a loading control. Results are representative of 2 independent experiments.
HL-60 cells were seeded in T25 flasks at 50 x10^4 cells/mL and treated with either vehicle [0.5% […]
After 16 hours, cells were […]
collected and washed with PBS. Cell pellets were re-suspended in cold cell lysis buffer (radio-immunoprecipitation assay buffer) supplemented with 1% phosphatase inhibitor cocktail 2 and 3 (Sigma) and 10% protease inhibitor (Roche). Cells were lysed for 30 minutes on ice.
Protein concentration was then determined by BCA assay. Lysates were boiled with laemmli sample buffer [Tris-HCL 50 mM (pH 6.7), glycerol 10% (w/v), sodium dodecyl sulphate 2% (w/v), bromophenol blue 0.02% (w/v)] containing DTT […] for 10 min. at 90 °C. Also 20 µg of lysates were resolved by sodium dodecyl sulphate polyacrylamide gel electrophoresis (SDS - PAGE) and transferred onto PVDF transfer membrane (EMD Millipore). Membranes were blocked with 5% non-fat milk and probed with primary antibodies for ERK and phospho-ERK (Cell Signaling). Anti-GAPDH was used as a loading control (Calbiochem).

HL-60 cells [2] = test system: HL-60 cells; parameters: method as in PMID 24858546; conditions: alamarBlue; previously tested compound; read-out: HL-60 IC50 ± SEM; cited from earlier work
BRAF [3] = test system: BRAF; parameters: method as in PMID 24858546, PMID 26318998; conditions: cited from earlier work
BRAF [4] = test system: BRAF; parameters: method as in PMID 24858546, PMID 26318998; conditions: in vitro; cited from earlier work
HL-60 cells [5] = test: alamarBlue cell viability assay, HL-60; format: cell-based; conditions: Homo sapiens, HL-60, 72 h, read-out: HL-60 IC50 ± SEM
Source text: as §1
as §2, with “determined. […]” for “determined.”
Pharmacy, TCD. It was maintained in Roswell Park Memorial Institute (RPMI) 1640 medium with stable glutamate (GlutaMax I) supplemented with 10% (v/v) fetal bovine serum (FBS), 1% (v/v) penicillin/ streptomycin (pen-strep) and 2 mM L-glutamine. […]
as §6
Cells were counted and seeded in 96 well plates at a density of 2 × 10^5 cells/mL for HL-60, 2.5× 10^4 cells/mL for MCF-7, MCF10A and HeLa, 1 × 10^5 cells/mL for HCT116 and HKH-2, all of them in their respective media. The 96 well plates were then treated with a 1:100 dilution of stock concentrations of drugs or EtOH (1% v/v)/DMSO (0.1% v/v) as vehicle control in triplicate.
Three blank wells containing 200 µL media with no cells were also set-up as blanks. After a 72 h incubation, 20 µL of AlamarBlue was added to each well. The plates were incubated in darkness at 37 °C for 4-5 h. Using a Molecular Devices microplate reader, the fluorescence (F) was then read at an excitation wavelength of 544 nm and an emission wavelength of 590 nm.
Cell viability was then determined by subtracting the mean blank fluorescence (Fb) from the treated sample fluorescence (Fs) and expressing this as a percentage of the fluorescence of the blanked vehicle control (Fc). […] The results were […]
then plotted as a nonlinear regression, sigmoidal dose-response curves on Prism, from which the IC50 value for each drug was determined.
Fs − Fb x 100 = % Cell Viability
60 cell line in a dose-dependent manner.
(1 picture or pasted object on this page, not shown here)

SMILES | IC50 (MCF-7 cells) | IC50 (HeLa cells) | IC50 (HCT116 cells) | IC50 (HKH-2 cells) | effect on ERK phosphorylation (Ras/BRAF pathway) [1] | IC50 (HL-60 cells [2]) | inhibition of ATP binding to BRAF (BRAF [3]) | BRAF activity in radiometric assay (BRAF [4]) | IC50 (HL-60 cells [5]; alamarBlue, 72 h) | IC50 (HL-60 cells [5])
N=C(N)Nc1ccc(Oc2cccc(NC(=N)Nc3ccc(Cl)c(C(F)(F)F)c3)c2)cc1 [Compound 1] | 9.3 ± 1.87 µM | 9.48 ± 0.16 µM | 9.96 ± 0.6 µM | 19.2 ± 0.84 µM | inhibiting ERK phosphorylation; also recorded: abrogates ERK activation | 9.72 ± 0.9 µM | did not inhibit ATP binding to BRAF | inhibited in vitro |  | 
N=C(N)Oc1ccc(Oc2cccc(Nc3ccc(Cl)c(C(F)(F)F)c3)c2)cc1 [Compound 70, 4-(3-((4-Chloro-3-(trifluoromethyl)phenyl)amino)phenoxy)phenyl carbamimidate hydrochloride] | 7.32 ± 0.35 µM |  |  |  |  |  |  |  | 4.22 ± 0.04 µM | 
CNC(=O)c1cc(Oc2ccc(NC(=O)Nc3ccc(Cl)c(C(F)(F)F)c3)cc2)ccn1 [Sorafenib, reference compound] | 3.07 ± 0.1 µM | 4.59 ± 0.45 µM | 6.79 ± 0.18 µM | 4.43 ± 0.39 µM |  |  |  |  |  | 2.53 ± 0.68 µM
